In article PMC7997579, “Synthetic Lethality in Pancreatic Cancer: Discovery of a New RAD51-BRCA2 Small Molecule Disruptor That Inhibits Homologous Recombination and Synergizes with Olaparib” (Journal of Medicinal Chemistry, 2020):
Read-outs that look alike come from different tables or passages of the source.

How the values were obtained:
Capan-1 cells = experiment: Immunofluorescence of nuclear γ-H2AX foci (DNA damage); assay type: cell-based, human; conditions: Capan-1, 48 h, 10 μM olaparib alone
Description: To evaluate DNA damage through γH2AX nuclear foci, BXPC3 and Capan1 cells were seeded on glass coverslips in 6-well tissue culture plate (2 × 10^5 cells/well) and allowed to adhere overnight. After 48 h treatment with olaparib (10 μM) or 35d (20 μM) given alone or in combination, cultures growing on coverslips were fixed and treated as described above. For this experiment, the used antibodies were a rabbit polyclonal anti-γH2AX (Abcam, 1:1000 in 5% BSA/PBS) and a secondary anti-rabbit rhodamine-labeled (Novus Biologicals, 1:1000 in 1% BSA/PBS). For both experiments, images were acquired using a Nikon fluorescent microscope equipped with filters for FITC, TRITC, and DAPI. The percentage of cells bearing nuclear foci was estimated by two independent observers, by analyzing 100–250 cells for each treatment sample.

[1] = tested on: homologous recombination in BxPC3 cells; parameters: method as in PMID 30660828; conditions: earlier triazole; cited from earlier work
BRC4–RAD51 interaction = target: T1, BRC4–RAD51 interaction (Homo sapiens, UniProt Q06609); experiment: Competitive biochemical ELISA assay (biotinylated BRC4 peptide vs RAD51); assay type: binding
T1 construct: purchased Creative Biomart (RAD51); Life Technologies (BRC4 peptide)
T1 sequence (Q06609 1-339): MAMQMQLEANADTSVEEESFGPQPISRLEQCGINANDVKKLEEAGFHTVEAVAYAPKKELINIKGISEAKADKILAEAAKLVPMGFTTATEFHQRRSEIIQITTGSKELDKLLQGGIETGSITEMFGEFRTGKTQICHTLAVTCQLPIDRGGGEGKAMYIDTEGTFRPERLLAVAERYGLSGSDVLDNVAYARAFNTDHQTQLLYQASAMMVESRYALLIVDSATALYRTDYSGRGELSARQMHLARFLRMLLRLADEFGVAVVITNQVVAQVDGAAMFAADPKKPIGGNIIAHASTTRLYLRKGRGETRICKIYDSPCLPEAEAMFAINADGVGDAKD
Description: To investigate the mechanism of action of the new dihydroquinolone pyrazoline derivatives, different biological assays were performed. As a primary screening, the ability of compounds 5d–57d to inhibit RAD51-BRCA2 interaction was investigated with a competitive biochemical ELISA assay against the parent compound 4d (Table 1). This assay is effective in evaluating the ability of new molecules to compete with BRC4 to bind to RAD51.[30] […] 18d–21d, 23d, 25d, 30d, and 31d were active at micromolar range, all very similar to the initial hit. […] The replacement of the aromatic ring A in combination with the substitution of the pyrazoline nitrogen with either propionyl or acetyl chain yielded compounds 33d–51d. […] As expected for PPI disruptors, the SARs of the new series of dihydroquinolone pyrazoline were rather complex to rationalize, with many cliffs and spikes that were difficult to understand. […] Accordingly, 4d, 12d, 18d, 20d–23d, 30d, 31d, 33d–36d, 39d, 45d, and 49d were submitted to cell-based study (Table 2).
Competitive ELISA screening assay using biotinylated BRC4 peptide to disrupt the BRC4–RAD51 interaction was performed by modifying the method described by Rajendra et al.[33] BRC4-biotinylated peptide (N-term biotin-[…] from Life Technologies) was used to coat 384-well plates (Nunc). After washing with PBS containing 0.05% Tween-20 (PBST) and blocking with the solution BSA 1% /PBST, overnight hybridization with human RAD51 protein (NP_002866 Creative Biomart, NY) was performed. Test compounds were added in dose response from 0.01 to 100 μM in triplicate with constant DMSO 1%. Antibody raised against RAD51 (Millipore) and HRP-secondary antibody staining to develop the 3,3′,5,5′-tetramethylbenzidine signal (Sigma) quenched with 1 M HCl was used as the assay readout. Colorimetric measure was read on a Victor5 (PerkinElmer) plate reader. BRC4 and Rad51 were included in the assay as positive control. Results were analyzed by using GraphPad software.

[2] = tested on: homologous recombination in BxPC3 cells; experiment: Homologous recombination assay (two-plasmid recombination, real-time PCR); assay type: cell-based, human; conditions: BxPC3; one or two doses in the range of the ELISA EC50; NDD = not dose-dependent
Description: Our working hypothesis is that compounds disrupting RAD51-BRCA2 interaction should affect HR repair and increase the efficacy of PARPi in treating breast, ovarian, and pancreatic cancer. For its clinical relevance, pancreatic adenocarcinoma was selected as our final model for cell-based experiments, and BxPC3 cells were selected for a straightforward comparison with the previously reported triazole derivatives.[30],[31] BxPC3 is derived from a human adenocarcinoma that expresses fully functional BRCA2.[38] As shown in Table 2 and according to the rationale of our hypothesis, our preliminary screening consisted of verifying the efficacy of compounds in inhibiting cell HR and/or in increasing the antiproliferative effect of olaparib. […] HR activity was assessed by evaluating the recombination rate between two transfected plasmids, using a commercially available assay. […] As for the emissucinic acid-containing compounds (4d, 12d, 18d, 20d–23d, 30d, 31d), one of the reasons for their lower potency in cells might be the general poor permeability, likely related to the ionizable acid moiety. […] We then characterized 35d in additional biophysical and cell-based experiments.
Homologous recombination (HR) was assessed by using a commercially available assay (Norgen). This assay is based on cell transfection with two plasmids that, upon cell entry, recombine. The efficiency of HR can be assessed by real-time PCR, using primer mixtures included in the assay kit. Different primer mixtures allow one to discriminate between the original plasmid backbones and their recombination product.
BxPC3 cells (2 × 10^5 per well) were seeded in a 24-well plate and allowed to adhere overnight. Co-transfection with the two plasmids was performed in Lipofectamine 2000 (Invitrogen) according to the manufacturer’s instructions. During transfection (5 h), cells were exposed to different doses of RAD51-BRCA2 disruptors, dissolved in RPMI in the presence of 0.6% DMSO. After washing with PBS, cells were harvested, and DNA was isolated using Illustra Tissue and Cell Genomic Prep Mini Spin kit (GE Healthcare). Sample concentration was measured using an ONDA Nano Genius photometer. The efficiency of HR was assessed by real-time PCR, using 25 ng of template, the primer mixtures included in the assay kit and following the protocol indicated by the manufacturer. Data analysis was based on the ΔΔCt method: [recombination product/backbone plasmids]^treated versus [recombination product/backbone plasmids]^control.

[3] = Solubility (as observed in cell culture media / stated); assay type: physicochemical; conditions: cell culture media

With `O=C(c1cc(Cc2n[nH]c(=O)c3ccccc23)ccc1F)N1CCN(C(=O)C2CC2)CC1` [olaparib] the “γ-H2AX labeling in nuclei” value (Capan-1 cells) was “increased nuclear labeling”.

In the case of `O=C(CSc1nnc(Cn2c(=O)sc3ccccc32)n1CCCc1ccccc1)NC1CCCCC1` [Compound 3], the HR inhibition [1] is listed as no more than 40%.

For `CCC(=O)N1N=C(c2c(-c3ccccc3)c3cc(Cl)ccc3[nH]c2=O)CC1c1ccc(Br)cc1` (stereo not drawn) [Compound 34d, 3-(5-(4-Bromophenyl)-1-propionyl-4,5-dihydro-1H-pyrazol-3-yl)-6-chloro-4-phenylquinolin-2(1H)-one], the EC50 (BRC4–RAD51 interaction; Table 2, compounds selected for cell-based study, read-out: EC50 ELISA) was 19 ± 1 µM, the EC50 (BRC4–RAD51 interaction; competition with BRC4 for RAD51, triplicate, ± standard deviation, NA = not active, racemic mixtures unless enantiomer named, read-out: EC50 (μM) on ELISA assay) was 19 ± 1 µM and the “HR inhibition (in words)” value [2] was “HR inhibition = not present”. The “solubility in cell culture media” value [3] was “poor solubility”.
